What was measured:
human CYP17 = human CYP17 (Homo sapiens (Human), UniProt P05093); assay: CYP17 inhibition assay (membrane fraction of E. coli expressing human CYP17, substrate progesterone); assay type: biochemical; details: 25 μM, inhibitor concentration 2.0 μM; for inhibition at 2 µM: read-out: inhibition (%) CYP 17
Description: Recombinant E. coli pJL17/OR coexpressing human CYP17 and rat NADPH-P450-reductase were grown and stored as described by Ehmer et al. (J. Steroid Biochem. Mol. Biol., 2000, 75, 57-63)
For isolation of membrane fractions, 5 ml of bacterial suspension with an OD578 of 50 were washed using phosphate buffer (0.05 M, pH 7.4, 1 mM MgCl2, 0.1 mM EDTA and 0.1 mM dithiothreitol). Bacteria were harvested by centrifugation (2000×g) and the pellet was resuspended in 10 ml ice-cold TES buffer (0.1 M tris-acetate, pH 7.8, 0.5 mM EDTA, 0.5 M sucrose). Lysozyme was added with 10 ml of ice-cold water resulting in a concentration of 0.2 mg/ml followed by incubation for 30 min on ice with continuous shaking. Spheroplasts were harvested by centrifugation (12000×g, 10 min), and resuspended in 4 ml of ice-cold phosphate buffer (the same as described above plus 0.5 mM phenylmethylsulfonylfluoride (PMSF)).
After that spheroplasts were sonicated on ice (pulse 20 s on, 30 s off, five times), using a sonicator Sonopuls HD60 (Bandelin, Berlin, Germany) at maximum power. Unbroken cells and debris were pelleted at 3000×g for 7 min, and the supernatant was centrifuged at 50000×g for 20 min at 4° C. The membrane pellet was resuspended in 2 ml of phosphate buffer (the same as described above) with 20% glycerol using an ultra-turrax T25 (IKA-Labortechnik, Staufen, Germany). Protein concentration was determined by the method of Lowry.
The assay was performed as follows: a solution of 6.25 nmol progesterone (in 5 μl methanol) in 140 μl phosphate buffer (0.05 M, pH 7.4, 1 mM MgCl2, 0.1 mM EDTA and 0.1 mM dithiothreitol), 50 μl NADPH generating system (in phosphate buffer with 10 mM NADP, 100 mM glucose-6-phosphate and 2.5 units of glucose-6-phosphate-dehydrogenase) and inhibitor (in 5 μl DMSO) was pre-incubated at 37° C. for 5 min. Control cups were supplemented with 5 μl DMSO without inhibitor. The reaction was started by adding 50 μl of a 1:5 diluted membrane suspension in phosphate buffer (0.8-1.0 mg protein per ml). The maximum DMSO concentration in each sample was 2%. After mixing, incubation was performed for 30 min at 37° C. Subsequently the reaction was stopped with 50 μl 1 N HCl.
Extraction of the steroids was performed by addition of 1.0 ml ethyl acetate and vigorous shaking for 1 min. After a centrifugation step (5 min, 2500×g) the organic phase (0.9 ml) was transferred into a fresh cup containing 0.25 ml of incubation buffer and 50 μl 1 N HCl and mixed again. After centrifugation, 0.8 ml ethyl acetate solution was evaporated to dryness in a fresh cup. After that the steroids were redissolved in solvent for HPLC analysis (Hutschenreuter et. al. J. Enz. Inhib. Med. Chem. 2004, 19, 17-32).
The above experiment was conducted at least three times and a mean value for the CYP17 inhibition calculated.

Human placental CYP19 = Human placental CYP19 (Homo sapiens (Human), UniProt P11511); assay: CYP19 (aromatase) assay, human placental microsomes, 3H2O release; assay type: biochemical; details: substrate androstenedione, 500 nM, inhibitor concentration 500 nM; for inhibition at 0.5 µM: read-out: inhibition (%) CYP 19
Sequence of Human placental CYP19 (P11511 whole entry): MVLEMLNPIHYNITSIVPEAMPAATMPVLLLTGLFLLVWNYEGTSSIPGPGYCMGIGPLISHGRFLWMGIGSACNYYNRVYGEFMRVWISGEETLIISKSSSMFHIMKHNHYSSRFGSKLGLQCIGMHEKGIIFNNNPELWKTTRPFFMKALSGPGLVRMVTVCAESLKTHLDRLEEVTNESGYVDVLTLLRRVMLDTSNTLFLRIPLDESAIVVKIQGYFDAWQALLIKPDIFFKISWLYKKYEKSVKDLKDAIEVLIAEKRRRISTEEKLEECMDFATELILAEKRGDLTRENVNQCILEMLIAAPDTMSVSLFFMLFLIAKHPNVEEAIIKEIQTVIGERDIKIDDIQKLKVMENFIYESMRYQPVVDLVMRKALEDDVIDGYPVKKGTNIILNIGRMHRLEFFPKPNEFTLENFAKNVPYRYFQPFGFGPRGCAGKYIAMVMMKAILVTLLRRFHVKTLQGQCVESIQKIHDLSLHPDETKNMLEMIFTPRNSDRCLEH
Description: The enzyme was obtained from the microsomal fraction of freshly delivered human term placental tissue according to the procedure of Thompson and Siiteri (Thompson, E. A.; Siiteri, P. K. J. Biol. Chem. 1974, 249, 5364).
The isolated microsomes were suspended in a minimum volume of phosphate buffer (0.05 M, pH 7.4, 20% glycerol). Additionally, DTT (dithiothreitol, 10 mM) and EDTA (1 mM) were added to protect the enzyme from degradation. The enzyme preparation was stored at −70° C.
The assay was performed monitoring enzyme activity by measuring the ^3H2O formed from [1β-^3H]androstenedione during aromatization (Hartmann et al. J. Med. Chem. 1986, 29, 1362-1369). […] The test compounds were dissolved in DMSO and diluted with buffer. The final DMSO concentration in the control and inhibitor incubation was 2%. Each tube was pre-incubated for 5 min at 30° C. in a water bath. Microsomal protein was added to start the reaction (0.1 mg). The total volume for each incubation was 0.25 ml. The reaction was terminated by the addition of 200 μl of a cold 1 mM HgCl2 solution. After addition of 200 μl of an aqueous dextran-coated charcoal (DCC) suspension (2%), the vials were shaken for 20 min and centrifuged at 1500×g for 5 min to separate the charcoal-absorbed steroids. The supernatant was assayed for ^3H2O by counting in a scintillation mixture using a β-counter. The calculation of the IC50 values was performed by plotting the percent inhibition vs. the concentration of inhibitor on a semi-log plot.
The above experiment was conducted at least three times and a mean value for the CYP19 inhibition calculated.

human CYP11B1 = human CYP11B1 (Homo sapiens (Human), UniProt P15538); assay: Cellular assay for CYP11B1 inhibition (V79MZh11B1 hamster fibroblasts, substrate 11-deoxycorticosterone); details: for sf: selectivity factor: IC50 (CYP11B2)/IC50 (CYP11B1): ratio IC50 (CYP11B2)/IC50 (CYP11B1); for IC50: read-out: IC50 value CYP11B1, Hamster fibroblasts expressing human CYP11B1, substrate 11-deoxycorticosterone, 100 nM, mean of at least three experiments
Sequence of human CYP11B1 (P15538 25-503): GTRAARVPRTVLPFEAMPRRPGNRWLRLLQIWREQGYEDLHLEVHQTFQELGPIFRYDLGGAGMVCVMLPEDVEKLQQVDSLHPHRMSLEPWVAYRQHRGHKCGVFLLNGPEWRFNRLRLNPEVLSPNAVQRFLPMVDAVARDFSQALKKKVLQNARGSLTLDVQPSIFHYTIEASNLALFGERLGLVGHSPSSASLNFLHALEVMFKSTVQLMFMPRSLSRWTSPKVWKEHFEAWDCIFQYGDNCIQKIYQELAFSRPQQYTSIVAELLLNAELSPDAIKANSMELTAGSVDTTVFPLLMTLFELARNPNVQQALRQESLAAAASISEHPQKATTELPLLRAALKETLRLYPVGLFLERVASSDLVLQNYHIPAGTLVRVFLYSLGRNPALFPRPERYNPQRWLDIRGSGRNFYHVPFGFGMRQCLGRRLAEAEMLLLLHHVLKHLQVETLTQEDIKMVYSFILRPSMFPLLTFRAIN

human CYP11B2 = human CYP11B2 (Homo sapiens (Human), UniProt P19099); assay: Cellular assay for CYP11B2 inhibition (V79MZh11B2 hamster fibroblasts, substrate 11-deoxycorticosterone); details: for IC50: read-out: IC50 value CYP11B2, Hamster fibroblasts expressing human CYP11B2, 100 nM, mean of at least three experiments, n.i. = no inhibition at an inhibitor concentration of 500 nM
Sequence of human CYP11B2 (P19099 25-503): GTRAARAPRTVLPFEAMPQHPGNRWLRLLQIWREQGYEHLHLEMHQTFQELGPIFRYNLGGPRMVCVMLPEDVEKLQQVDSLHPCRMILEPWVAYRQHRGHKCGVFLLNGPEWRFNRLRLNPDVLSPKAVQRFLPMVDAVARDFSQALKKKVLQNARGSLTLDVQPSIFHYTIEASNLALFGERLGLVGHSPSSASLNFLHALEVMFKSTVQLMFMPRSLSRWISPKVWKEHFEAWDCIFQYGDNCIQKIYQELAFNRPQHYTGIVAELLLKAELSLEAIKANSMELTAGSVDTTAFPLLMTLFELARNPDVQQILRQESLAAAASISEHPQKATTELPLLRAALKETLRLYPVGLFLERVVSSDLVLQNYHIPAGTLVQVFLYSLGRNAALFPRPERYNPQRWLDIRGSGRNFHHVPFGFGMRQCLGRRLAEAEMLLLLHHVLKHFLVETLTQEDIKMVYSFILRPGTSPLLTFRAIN

Sequence of human CYP17 (P05093 whole entry): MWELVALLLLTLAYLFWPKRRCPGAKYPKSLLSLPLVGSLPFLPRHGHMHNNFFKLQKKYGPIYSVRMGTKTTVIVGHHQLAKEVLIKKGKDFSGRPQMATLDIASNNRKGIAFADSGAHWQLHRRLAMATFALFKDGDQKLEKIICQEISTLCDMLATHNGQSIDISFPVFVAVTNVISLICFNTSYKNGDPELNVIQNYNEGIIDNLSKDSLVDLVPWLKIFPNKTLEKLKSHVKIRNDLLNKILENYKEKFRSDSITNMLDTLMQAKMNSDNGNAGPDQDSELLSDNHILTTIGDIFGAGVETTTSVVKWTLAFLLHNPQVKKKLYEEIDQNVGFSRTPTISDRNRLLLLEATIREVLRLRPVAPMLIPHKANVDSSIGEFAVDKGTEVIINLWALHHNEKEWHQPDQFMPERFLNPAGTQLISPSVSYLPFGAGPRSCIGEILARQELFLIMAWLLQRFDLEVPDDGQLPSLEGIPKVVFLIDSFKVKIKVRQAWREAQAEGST

Structure (SMILES) | inhibition at 2 µM (human CYP17) | inhibition at 0.5 µM (Human placental CYP19) | sf: selectivity factor: IC50 (CYP11B2)/IC50 (CYP11B1) (human CYP11B1) | IC50 (human CYP11B1) | IC50 (human CYP11B2) | IC50 value CYP11B2 (human CYP11B2; Hamster fibroblasts expressing human CYP11B2, 100 nM, mean of at least three experiments, n.i. = no inhibition at an inhibitor concentration of 500 nM) | inhibition (%) CYP 17 (human CYP17) | inhibition (%) CYP 19 (Human placental CYP19)
COc1ccccc1-c1ccc(Cn2ccnc2)cn1 [Compound 12, 5-Imidazol-1-ylmethyl-2-(2-methoxy-phenyl)pyridine] | 5% | 4% | 26 | 167 nM | 4390 nM |  |  | 
Nc1ccccc1-c1ccc(Cn2ccnc2)cn1 [Compound 15, 2-(5-Imidazol-1-ylmethyl-pyridin-2-yl)-phenylamine] | 6% | 0% | 21 | 101 nM | 2110 nM |  |  | 
Nc1cccc(-c2ccc(Cn3ccnc3)cn2)c1 [Compound 16, 3-(5-Imidazol-1-ylmethyl-pyridin-2-yl)-phenylamine] | 3% | 2% | 31 | 110 nM | 3410 nM |  |  | 
Nc1ccc(-c2ccc(Cn3ccnc3)cn2)cc1 [Compound 17, 4-(5-Imidazol-1-ylmethyl-pyridin-2-yl)-phenylamine] | 4% | 1% | 5 | 106 nM | 528 nM |  |  | 
Cc1ccc(-c2ccc(Cn3ccnc3)cn2)cc1N [Compound 18, 5-(5-Imidazol-1-ylmethyl-pyridin-2-yl)-2-methyl-phenylamine] | 3% | 0% |  | 542 nM | > 1000 nM |  |  | 
c1ccc(N(c2ccccc2)c2ccc(-c3ccc(Cn4ccnc4)cn3)cc2)cc1 [Compound 22, [4-(5-Imidazol-1-ylmethyl-pyridin-2-yl)-phenyl]-diphenyl-amine] | 2% | 1% |  | 611 nM |  | n.i.^d |  | 
c1ccc(-c2cc(Cn3ccnc3)cnc2-c2ccccc2)cc1 [Compound 25, 5-Imidazol-1-ylmethyl-2,3-diphenyl-pyridine] | 3% | 0% | 2.4 | 362 nM | 851 nM |  |  | 
c1cn(Cc2ccc(-c3ccsc3)nc2)cn1 [Compound 32, 5-Imidazol-1-ylmethyl-2-thiophen-3-yl-pyridine] | 3% | 0% | 26 | 126 nM | 3260 nM |  |  | 
c1coc(-c2ccc(Cn3ccnc3)cn2)c1 [Compound 39, 2-Furan-2-yl-5-imidazol-1-ylmethyl-pyridine] | 1% | 0% | 31 | 167 nM | 5160 nM |  |  | 
c1cn(Cc2ccc(-c3ccoc3)nc2)cn1 [Compound 40, 2-Furan-3-yl-5-imidazol-1-ylmethyl-pyridine] | 8% | 0% | 37 | 76 nM | 2830 nM |  |  | 

Results, then the molecule that gave them:

inhibition at 2 µM (human CYP17) | inhibition at 0.5 µM (Human placental CYP19) | sf: selectivity factor: IC50 (CYP11B2)/IC50 (CYP11B1) (human CYP11B1) | IC50 (human CYP11B1) | IC50 (human CYP11B2) | IC50 value CYP11B2 (human CYP11B2; Hamster fibroblasts expressing human CYP11B2, 100 nM, mean of at least three experiments, n.i. = no inhibition at an inhibitor concentration of 500 nM) | inhibition (%) CYP 17 (human CYP17) | inhibition (%) CYP 19 (Human placental CYP19) | Structure (SMILES)
8% | 5% | 49 | 42 nM | 2080 nM |  |  |  | c1ccc2c(-c3ccc(Cn4ccnc4)cn3)cccc2c1 [Compound 23, 5-Imidazol-1-ylmethyl-2-naphthalen-1-yl-pyridine]
8% | 3% | 17 | 75 nM | 1240 nM |  |  |  | c1csc(-c2ccc(Cn3ccnc3)cn2)c1 [Compound 31, 5-Imidazol-1-ylmethyl-2-thiophen-2-yl-pyridine]
5% | 0% | 16 | 62 nM | 968 nM |  |  |  | O=Cc1ccc(-c2ccc(Cn3ccnc3)cn2)s1 [Compound 34, 5-(5-Imidazol-1-ylmethyl-pyridin-2-yl)-thiophene-2-carbaldehyde]
 |  | 6 | 73 nM | 416 nM |  | 5% | 30% | c1ccc(-c2cc(Cn3ccnc3)cnc2-c2ccccc2)cc1 [Compound 35, 5-Imidazol-1-ylmethyl-2,3-diphenyl-pyridine]
0% | 19% | 16 | 16 nM | 251 nM |  |  |  | c1csc(-c2ncccc2Cn2ccnc2)c1 [Compound 36, 3-Imidazol-1-ylmethyl-2-thiophen-2-yl-pyridine]
4% | 0% | 29 | 40 nM | 1160 nM |  |  |  | c1ccc2c(-c3ccc(Cn4ccnc4)cn3)csc2c1 [Compound 38, 2-Benzo[b]thiophen-3-yl-5-imidazol-1-ylmethyl-pyridine]
6.7% | 2.2% | 29 | 29 nM | 830 nM |  |  |  | c1coc(-c2cc(Cn3ccnc3)cnc2-c2ccco2)c1 [Compound 42, 2,3-Di-furan-2-yl-5-imidazol-1-ylmethyl-pyridine]

Source: patent US9394290B2, “Selective CYP11B1 inhibitors for the treatment of cortisol dependent diseases” (UNIVERSITAET DES SAARLANDES CAMPUS SAARBRUECKEN, priority 2010, dated 2016)
